PMC7024204, “Synthesis, Crystal Structure, and Biological Activity of a Multidentate Calix[4]arene Ligand Doubly Functionalized by 2-Hydroxybenzeledene-Thiosemicarbazone” (Molecules, 2020)
In brackets after ≈: the same amount, converted by molar mass. Where two headings read alike, the source gives them in different places.

How the values were obtained:
[1] = system: P. aeruginosa (ATCC 27853); test: Broth microdilution (serial double dilution) MIC/MBC; assay type: cell-based, Pseudomonas aeruginosa; details: for MIC: ATCC27853, 24 h, 37 °C, micro-broth dilution
Experimental: (§1) S. aureus (ATCC® 29213™), B. subtilis (ATCC® 6633™), E. coli (ATCC® 25922™), P. aeruginosa (ATCC® 27853™), C. albicans (ATCC® 10231™), and C. glabrata (ATCC® 2001™) were cultured onto sterile Mueller-Hinton agar plates, and incubated at 37 °C for 24 h. After incubation, a single colony was selected to inoculate a sterile tube containing 2 mL of sterile normal saline to match the turbidity of a 0.5 McFarland standard (10^8 cfu/mL). Further dilution was done with sterile normal saline to 10^5 cfu/mL before incubation.
(§2) Serial dilution of the synthesized compounds suspension in DMSO (2000–15.62 μg/mL) was done in a sterile 96-well plate. Then, 20 μL of an overnight bacterial and fungal suspension and 180 μL of the compounds suspension in MHB (and 1% glucose for fungal strains) were mixed in each well. The final concentration of DMSO was 10%. After 24 h of incubation at 37 °C, the first concentration with no bacterial growth is regarded as the minimum inhibitory concentration (MIC). Controls (microorganism strain in MHB without chemical and MHB alone) were included in each measurement. Aliquots of 5 μL from wells in which no growth was observed were spotted onto Mueller–Hinton agar plates to determine the minimum bactericidal concentration (MBC) values. The MBC was read as the lowest concentration with no growth after 24 h of incubation.

E. coli (ATCC 25922) = test: as above; assay type: cell-based, Escherichia coli; details: for MIC / MBC: Escherichia coli; for MIC: ATCC25922, 24 h, 37 °C, micro-broth dilution; for MBC: ATCC25922, micro-broth dilution
Experimental: as §1, §2

S. aureus (ATCC 29213) = test: as above; assay type: cell-based; details: Staphylococcus aureus
Experimental: as §1, §2

B. subtilis (ATCC 6633) = test: as above; assay type: cell-based; details: Bacillus subtilis; for MIC: ATCC6633, 24 h, 37 °C, micro-broth dilution
Experimental: as §1, §2

Saos-2 cell line [2] = system: Saos-2 cell line; design: method as in PMID 31649917; details: Saos-2, thiosemicarbazide ligand and metal derivatives; cited from earlier work
C. albicans (ATCC 10231) [3] = system: C. albicans (ATCC 10231); design: method as in PMID 31649917; details: cited from earlier work
C. glabrata (ATCC 2001) = test: Broth microdilution (serial double dilution) MIC/MBC; assay type: cell-based, Candida glabrata; details: 24 h, 37 °C, micro-broth dilution
Experimental: as §1, §2

C. albicans (ATCC 10231) [4] = test: as above; assay type: cell-based, Candida albicans; details: for MIC: 37 °C, micro-broth dilution
Experimental: as §1, §2

Saos-2 cells = test: DAPI staining, morphology of cell nuclei; assay type: cell-based, human; details: Saos-2, 48 h exposure at IC50
Experimental: To visually study the apoptotic effects of the synthesized compounds (L and its Co, Ni, Cu, and Zn complexes), the 4′,6-diamidino-2-phenylindole (DAPI) staining assay was performed according to the literature procedure. Briefly, Saos-2 cells were seeded in six-well plates (5 × 10^4 cells per well) and incubated at 37 °C for 24 h. After the growth of the cells, the culture media were replaced by fresh media containing L and its metal derivatives (sterile filtered through 500 nm) at their half-maximal inhibitory growth concentration (IC50). Cells receiving no treatment were considered as the control group. After 48 h, the cells were washed three times with fresh PBS (pH 7.4) to remove any chemical compounds. Subsequently, the cells were fixed with 4 wt% paraformaldehyde for 15 min at room temperature. Afterwards, the cells were washed three times with PBS and permeabilized with Triton X-100 (0.1% w/v) for 5 min. The cells were washed again with PBS and stained with 300 ng mL^−1 DAPI for 15 min. DNA condensation and fragmentation in apoptotic cells were evaluated under a fluorescence microscope.

Saos-2 cell line [5] = test: MTT cytotoxicity assay; assay type: cell-based, human; details: for IC50: Homo sapiens, Saos-2, MTT, 48 h, read-out: In vitro cytotoxic activity IC50; for anti-cancer effect: Saos-2, especially at 2.5–20 μg/mL
Experimental: (§3) The colorimetric MTT assay, introduced by Mossmann, was used for the evaluation of the anti-cancer activity of our synthesized compounds against Saos-2 and MG-63 cell lines (human bone cancer cells). These cells were obtained from the Pasteur Institute of Iran, Tehran, Iran and maintained in RPMI 1640 medium supplemented with 10% FBS and 1% benzylpenicillin/streptomycin. […] The cells without treatment were considered as the control. After 48 h, the medium was removed and replaced with 200 μL of fresh medium containing 100 μg mL^−1 MTT powder and incubated for a further 4 h. The medium was then withdrawn and 100 μL of DMSO was added to dissolve the formazan crystals inside the cells. The absorbance of solubilized formazan was detected at 570 nm with the reference wavelength of 630 nm using an ELISA plate reader (Stat Fax, 2100, Awareness Technology Inc., Palm City, FL, USA). The viability of cells in each well was calculated by the following formula:(1) viability of cells (%)=mean absorbance of sample/mean absorbance of control×100.

MG-63 cell line = test: MTT cytotoxicity assay; assay type: cell-based, human; details: for IC50: Homo sapiens, MG-63, MTT, 48 h, read-out: In vitro cytotoxic activity IC50; for anti-cancer effect: MG-63, especially at 2.5–20 μg/mL
Experimental: as §3

MIC ([1]; Pseudomonas aeruginosa) | MIC (E. coli (ATCC 25922)) | MIC (B. subtilis (ATCC 6633)) | Compound | MBC (E. coli (ATCC 25922)) | IC50 (Saos-2 cell line [5]) | IC50 (MG-63 cell line) | anti-cancer effect (Saos-2 cell line [5]) | anti-cancer effect (MG-63 cell line) | other results
2 µg/mL (≈ 4.19 µM) | 0.5 µg/mL (≈ 1.05 µM) | 2 µg/mL (≈ 4.19 µM) | CNC(C)C1CCC(N)C(OC2C(N)CC(N)C(OC3OCC(C)(O)C(NC)C3O)C2O)O1 (stereo not shown) [Gentamicin] | 0.5 µg/mL (≈ 1.05 µM) |  |  |  |  | MBC ([1]; Pseudomonas aeruginosa, ATCC27853, micro-broth dilution): 2 µg/mL (≈ 4.19 µM); MIC (S. aureus (ATCC 29213); ATCC29213, 24 h, 37 °C, micro-broth dilution): 0.12 µg/mL (≈ 0.251 µM); MBC (S. aureus (ATCC 29213); ATCC29213, micro-broth dilution): 0.25 µg/mL (≈ 0.523 µM); MBC (B. subtilis (ATCC 6633); ATCC6633, micro-broth dilution): 2 µg/mL (≈ 4.19 µM)
 |  |  | Bisthiosemicarbazide-substituted p-tert-butylcalix[4]arene [thiosemicarbazide ligand] |  |  |  |  |  | IC50 (Saos-2 cell line [2]): > 200 µg/mL; antifungal activity (C. albicans (ATCC 10231) [3]): resistant
 |  |  | C[C@@H]1[C@H](O)[C@@H](C)/C=C/C=C/CC/C=C/C=C/C=C/C=C/C(O[C@H]2O[C@H](C)[C@@H](O)[C@H](N)[C@@H]2O)CC2O[C@](O)(CC(O)C(O)CCC(O)CC(O)CC(O)CC(=O)O[C@H]1C)CC(O)C2C(=O)O (stereo partly shown) [Nystatin] |  |  |  |  |  | MIC (C. glabrata (ATCC 2001)): 0.625 µg/mL (≈ 0.675 µM); MIC (C. albicans (ATCC 10231) [4]; 24 h): 1.25 µg/mL (≈ 1.35 µM)
31.2 µg/mL (≈ 28.6 µM) | 31.2 µg/mL (≈ 28.6 µM) | 31.2 µg/mL (≈ 28.6 µM) | CC(C)(C)c1cc2c(O)c(c1)Cc1cc(C(C)(C)C)cc(c1OCCNC(=S)NN=Cc1ccccc1O)Cc1cc(C(C)(C)C)cc(c1O)Cc1cc(C(C)(C)C)cc(c1OCCNC(=S)NN=Cc1ccccc1O)C2 [Ligand L, 5, 11, 17, 23-tetra-tert-butyl-26, 28-dihydroxy-25, 27-bis(2(2-hydroxybenzeledene)thiosemicarbazonoethoxy) calix[4]arene] | 31.2 µg/mL (≈ 28.6 µM) | < 25 µg/mL | > 200 µg/mL |  |  | morphology of cell nuclei (DAPI-stained cells) (Saos-2 cells): deformed and fragmented nuclei; improvement of MIC in comparison with thiosemicarbazide equivalent [1]: 2 fold; melting point: 230 °C (dec.); antifungal activity (C. albicans (ATCC 10231) [4]): strong; MIC (C. albicans (ATCC 10231) [4]; Candida albicans, ATCC10231, 24 h, read-out: MIC): 31.2 µg/mL (≈ 28.6 µM); MBC (C. albicans (ATCC 10231) [4]; Candida albicans, ATCC10231, micro-broth dilution): 125 µg/mL (≈ 115 µM); antifungal activity (C. albicans (ATCC 10231) [4]; listed as thiosemicarbazone schiff-base ligand): significant antifungal activity; improvement of MIC in comparison with thiosemicarbazide equivalent (E. coli (ATCC 25922)): 8 fold
 |  |  | COc1cccc2c1C(=O)c1c(O)c3c(c(O)c1C2=O)C[C@@](O)(C(=O)CO)C[C@@H]3O[C@H]1C[C@H](N)[C@H](O)[C@H](C)O1 [DOX, doxorubicin] |  | 2.1 µg/mL (≈ 3.86 µM) | 10.1 µg/mL (≈ 18.6 µM) | strong anti-cancer effects | strong anti-cancer effects | 
 |  |  | CN(Cc1cnc2nc(N)nc(N)c2n1)c1ccc(C(=O)N[C@@H](CCC(=O)O)C(=O)O)cc1 [MTX, Methotrexate] |  | 7.9 µg/mL (≈ 17.4 µM) | 14.5 µg/mL (≈ 31.9 µM) | strong anti-cancer effects | strong anti-cancer effects | 
